From article PMC4180753, “Evaluation of Inhibitory Action of Novel Non β-Lactam Inhibitor against Klebsiella pneumoniae Carbapenemase (KPC-2)” (PLoS ONE, 2014)
Converted amounts (≈) assume the structure as drawn. Read-outs that look alike come from different tables or passages of the source.

Experiments:
[1] = biological target: T1, KPC-2 (Klebsiella pneumoniae, UniProt Q9F663); assay: IC50 and Ki on purified KPC-2 (nitrocefin hydrolysis); format: biochemical; parameters: inferred from Ni-NTA purification and the pQE-2 vector) (N); made in house; host or cells: E. coli BL21 (DE3); details: for IC50: IC50, 1 nM purified KPC-2, 5 minutes pre-incubation, 30°C, pH 7.0, nitrocefin substrate (so in the source)
T1 sequence (Q9F663 25-293 limits assumed): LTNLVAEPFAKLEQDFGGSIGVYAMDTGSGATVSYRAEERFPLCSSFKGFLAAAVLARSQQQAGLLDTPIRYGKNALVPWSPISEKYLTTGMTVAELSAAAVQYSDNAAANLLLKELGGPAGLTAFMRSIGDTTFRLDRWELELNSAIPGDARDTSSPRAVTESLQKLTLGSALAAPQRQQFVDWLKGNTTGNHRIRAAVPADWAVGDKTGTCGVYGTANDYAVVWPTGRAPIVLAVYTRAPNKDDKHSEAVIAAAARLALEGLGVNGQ
Experimental: The 50% inhibitory concentration (IC50) was defined as the concentration of the inhibitor that inhibited hydrolytic activity of the enzyme by 50%.
The inhibition constant, Ki, was calculated from the IC50 value by applying the Cheng-Prusoff correction

[2] = tested on: E. coli BL21 transformed with recombinant bla KPC-2 (pQE2-KPC-2); assay: microbe, parasite or virus in culture; format: cell-based, Escherichia coli; details: for MIC of the carbapenem in combination with screened inhibitors (ZINC01807204 and ZINC02318494) / MIC: BL21 (pQE2-KPC-2); for MIC of the carbapenem in combination with screened inhibitors (ZINC01807204 and ZINC02318494) / reduction in MIC of the carbapenem in combination with screened compounds (ZINC01807204 and ZINC02318494): inhibitors 4 µg/ml; for MIC: inhibitors at fixed concentration of 4 µg/ml; for reduction in MIC of the carbapenem in combination with screened compounds (ZINC01807204 and ZINC02318494): KPC-2 expressing BL21 cells
Experimental: A carbapenem resistant clinical strain of K. pneumoniae (NP6), previously characterised in our lab was procured from Jawaharlal Nehru Medical College (JNMC), Aligarh. […] Escherichia coli (DH5α) and E. coli BL21 (DE3) were used for cloning and protein expression experiments respectively. Minimum inhibitory concentration (MIC) and Confocal Laser Scanning Microscopy (CLSM) experiments were conducted on E.coli (BL21) cells expressing recombinant KPC-2 β-lactamase.
(§1) The Minimum Inhibitory Concentrations (MIC) of recombinant BL21(DE3) cells harboring bla KPC-2 gene were determined by micro dilution method for different carbapenems alone and in combination with inhibitors (Clavulanic acid, Sulbactam, Tazobactam, ZINC01807204 and ZINC02318494) against BL21 control cells (cells with null vector). The recombinant E. coli cells were induced with IPTG prior to performing experiments. The antimicrobial agents, imipenem, meropenem, ertapenem, clavulanic acid, sulbactam and tazobactam were obtained from Sigma Aldrich (USA) and compounds ZINC01807204 and ZINC02318494 were procured from Vitas M (Netherlands). The inhibitors were taken at a fixed concentration of 4 µg/ml.

[3] = tested on: E. coli BL21 (Null plasmid); assay: microbe, parasite or virus in culture; format: cell-based; details: Escherichia coli, inhibitors at fixed concentration of 4 µg/ml
Experimental: as §1

[4] = tested on: Klebsiella pneumoniae NP6 (clinical strain, KPC-2); assay: microbe, parasite or virus in culture; format: cell-based
[5] = tested on: Klebsiella pneumoniae MTCC 432; assay: MIC, susceptible MTCC strain; format: cell-based
[6] = tested on: E. coli BL21 transformants harbouring bla KPC-2; assay: CLSM Live/Dead cell staining (PI/SYTO 9); format: cell-based, Escherichia coli; details: 4 hours
Experimental: The control was taken without any drug. The media was inoculated and incubated at 37^οC for 4 hours. The media was removed and dishes were gently washed with MOPS (pH 7.0) to wash off extra media. Cells were then stained with propidium iodide (PI) and SYTO 9 (1∶1) for one hour. The fluorescence emission was observed using confocal scanning laser microscope FluoView FV1000 (Olympus, Tokyo, Japan). The optimal excitation wavelengths were […] and the optimal emission wavelengths were 500 and 610 nm, respectively. The images were obtained from atleast three randomly picked positions. The images of the control and in presence of known as well as novel inhibitors were averaged and compared.

[7] = Solubility observed in the inhibition assay; format: physicochemical; details: at higher concentrations; reason IC50 and Ki could not be determined
[8] = biological target: T1, KPC-2; details: nitrocefin as reporter substrate of KPC-2
[9] = MTCC432, MTCC 432, inhibitors at fixed concentration of 4µg/ml, read-out: MIC
[10] = sub-MIC meropenem in combination with the inhibitor (4 µg/ml)

`O=C(O)[C@H]1/C(=C/CO)O[C@@H]2CC(=O)N21` [Clavulanic acid] showed a Ki [1] of 30 µM and an IC50 [1] of 137 µM.
In the case of `C[C@@H](O)[C@H]1C(=O)N2C(C(=O)O)=C(S[C@@H]3CN[C@H](C(=O)Nc4cccc(C(=O)O)c4)C3)[C@H](C)[C@H]12` [Ertapenem, ertapenem], the “MIC of the carbapenem in combination with screened inhibitors (ZINC01807204 and ZINC02318494)” value [2] is reported as 16 µg/mL, the MIC [2] is reported as no less than 128 µg/mL and the MIC ([2]; Escherichia coli) is reported as 128 µg/mL. The “reduction in MIC of the carbapenem in combination with screened compounds (ZINC01807204 and ZINC02318494)” value (“reduction in MIC of the carbapenem” below) [2] was 8 fold, the MIC [3] was 0.25 µg/mL and the MIC [4] was no less than 256 µg/mL. It also gave an MIC [5, 9] of 0.0625 µg/mL (≈ 0.131 µM).
In the case of `C[C@@H](O)[C@H]1C(=O)N2C(C(=O)O)=C(SCCN=CN)C[C@H]12` [Imipenem, imipenem], the “MIC of the carbapenem in combination with screened inhibitors (ZINC01807204 and ZINC02318494)” value [2] is reported as 16 µg/mL, the MIC [2] is reported as no less than 64 µg/mL and the MIC ([2]; Escherichia coli) is reported as 64 µg/mL. For the same compound, the “reduction in MIC of the carbapenem” value [2] was “four fold”, the MIC [3] was 0.25 µg/mL and the MIC [4] was no less than 256 µg/mL. For the same compound, the MIC [5, 9] was 0.0625 µg/mL (≈ 0.209 µM).
In the case of `C[C@@H](O)[C@H]1C(=O)N2C(C(=O)O)=C(S[C@@H]3CN[C@H](C(=O)N(C)C)C3)[C@H](C)[C@H]12` [Meropenem, meropenem], the “MIC of the carbapenem in combination with screened inhibitors (ZINC01807204 and ZINC02318494)” value [2] is reported as 8 µg/mL, the MIC [2] is reported as no less than 64 µg/mL and the MIC ([2]; Escherichia coli) is reported as 64 µg/mL. The “reduction in MIC of the carbapenem” value [2] was 8 fold and eight fold, the MIC [3] was 0.125 µg/mL and the MIC [4] was no less than 256 µg/mL. For the same compound, the MIC ([5]; MTCC432) was 0.125 µg/mL (≈ 0.326 µM) and the “cells green with normal cell membranes” value ([6]; sub-MIC concentration of meropenem alone) was 60–70%.
Work on `CC1(C)[C@H](C(=O)O)N2C(=O)C[C@H]2S1(=O)=O` [Sulbactam] yielded a Ki [1] of 23.2 µM and an IC50 [1] of 106 µM.
In the case of `C[C@]1(Cn2ccnn2)[C@H](C(=O)O)N2C(=O)C[C@H]2S1(=O)=O` [Tazobactam], the “cells green with normal cell membranes” value [6, 10] is reported as 60–70%, the Ki [1] is reported as 21.6 µM and the IC50 [1] is reported as 98.8 µM.
With `CC(=O)Nc1ccc(S(=O)(=O)Nc2ccccc2NS(=O)(=O)c2ccc(NC(C)=O)cc2)cc1` [ZINC01807204] the “cells binding PI and Syto 9 (yellowish orange, affected)” value [6, 10] was 90–95%, the Ki [1] was 43.8 µM and the IC50 [1] was 200 µM.
For `CC(C)[C@H](NS(=O)(=O)c1ccc2c(c1)Cc1cc(S(=O)(=O)N[C@H](C(=O)O)C(C)C)ccc1-2)C(=O)O` [ZINC02318494], the “cells binding PI and Syto 9 (yellowish orange, affected)” value [6, 10] was 90–95% and the solubility [7] was “poor solubility at higher concentrations”.
`O=C(Cc1cccs1)N[C@@H]1C(=O)N2C(C(=O)O)=C(/C=C/c3ccc([N+](=O)[O-])cc3[N+](=O)[O-])CS[C@H]12` [nitrocefin] showed a Km [8] of 28 ± 6 µM.
